{
  "source": "patent US7511074B2",
  "about": "“Tetrafluorobenzyl derivatives and pharmaceutical composition for preventing and treating acute and chronic neurodegenerative diseases in central nervous system containing the same” (AmKor Pharma, Inc., priority 2002, dated 2009)",
  "key": {"[1]": {"tested_on": "ALS mice (G93A human SOD1 mutation)", "experiment": "Neuronal death in spinal cord of ALS transgenic mice (SOD1-G93A)", "type": "in vivo, mouse", "procedure": "Bright field photomicrographs of spinal cord sections stained with eosin from amyotrophic lateral sclerosis (ALS) mice over expressing the mutant SOD1-G93A that received vehicle (A) or 2-Hydroxy-TTBA (B, 10 mg/kg/day through drinking water) for 8 weeks from the age of 2 months.\nDegenerating neurons from FIG. 7a. were analyzed by counting viable neurons after staining with eosin in the dorsal and ventral horn of spinal cord from ALS mice treated with a vehicle (Control) or 2-Hydroxy-TTBA, mean ±S.E.M (n=5 animals for each condition). *, Significant difference from the vehicle control, p<0.05 using the independent t-test.\nTransgenic mice with the G93A human SOD1 mutation (B6SJL-TgN(SOD1-G93A)1Gur), animal models of ALS (ALS mice), were obtained from Jackson Laboratories (ME, USA). 2-hydroxy-TTBA was administered to 2 month-old wild type and ALS transgenic mice through drinking water bottle (10 mg/kg per day) for 8 weeks. Animals were then euthanized and spinal cords processed for histological examination by staining with hematoxylin and eosin. Spinal motor neurons from ALS mice without being treated with 2-hydroxy-TTBA (control) underwent degeneration as evident by eosinophilic staining, which was reduced in ALS mice treated with 2-hydroxy-TTBA (FIG. 7a).\nThe number of degenerating neurons was analyzed by counting eosinophilic neurons in ventral horn (VH) and dorsal horn (DH)."}, "C57/BL6 mice, MPTP": {"tested_on": "C57/BL6 mice, MPTP", "experiment": "Dopaminergic neuronal death in substantia nigra after MPTP injection", "type": "in vivo, mouse", "conditions": "25 or 50 mg/kg ip every 12 hr, MPTP 40 mg/kg s.c.", "procedure": "(§1) Bright field photomicrographs showing dopaminergic neurons in the substantia nigra immunostained with anti-tyrosine hydroxylase (TH) antibody 3 d following sham control (A) or the single daily injection of 1-methyl-4-phenyl-1,2,3,6-tetrahydropyridine (MPTP, 40 mg/kg, SC) in C57/BL6 mice, alone (B) or with intraperitoneal injections (2 times per day) of 2-Hydroxy-TTBA (C, 25 mg/kg; D, 50 mg/kg) prior to MPTP administration.\nQuantification of TH-positive dopaminergic neurons in the substantia nigral sections 3 d following the single daily injection of (MPTP, 40 mg/kg, SC), alone or with pretreatment with 2-Hydroxy-TTBA as described above. *, Significant difference from the control, p<0.05 using ANOVA and Student-Neuman-Keuls' test.\nas §1, with “antibody […]” for “antibody 3”\nC57/BL6 mice (male, 8 weeks) received the injections of 40 mg/kg MPTP (s.c.), alone or with 25 or 50 mg/kg 2-Hydroxy-TTBA (ip) every 12 hr per day beginning 30 min before MPTP injection. […]"}},
  "data": [
    {"smiles": "O=C(O)c1cc(NCc2c(F)c(F)c(C(F)(F)F)c(F)c2F)ccc1O", "note": "[2-Hydroxy-TTBA, 2-hydroxy-5-(2,3,5,6-tetrafluoro-4-trifluoromethylbenzylamino)benzoic acid]", "values": [
      {"measurement": "degeneration of spinal motor neurons (eosinophilic staining)", "setting": "[1]; 10 mg/kg per day in drinking water for 8 weeks from 2 months of age", "result": "reduced"},
      {"measurement": "degeneration of dorsal and ventral horn neurons (count of eosinophilic neurons)", "setting": "[1]; 10 mg/kg per day in drinking water for 8 weeks, n=5 animals", "result": "significantly prevented degeneration"},
      {"measurement": "degeneration of dopaminergic neurons in substantia nigra, 3 d", "setting": "C57/BL6 mice, MPTP; 3 d", "result": "significantly attenuated degeneration"},
      {"measurement": "protective effects on dopaminergic neurons, 7 d", "setting": "C57/BL6 mice, MPTP; 7 d", "result": "protective effects of 2-Hydroxy-TTBA are also observed"}
    ]}
  ]
}
